Consider 26 molecules from US8940742B2, “Heterocyclic compounds and uses thereof” (Infinity Pharmaceuticals, Inc., priority 2012, dated 2015).

One may read the IC50 as the concentration that gives 50% inhibition. The low end stands for greater potency, the high end for weaker potency.

Holding throughout (experiment): PI3-Kinase Promega ADP-Glo Max assay
Holding throughout (type): biochemical
In general terms: In ADP-Glo the light output rises with the ADP produced.

The target of one assay is T1, PI3K β (Homo sapiens, UniProt P42338).
T1 construct: purchased Millipore
The conditions noted are these: 40 nM kinase, 3 mM ATP, 500 uM diC8-PtdInsP. The protocol:
(§1) Promega ADP-Glo Max assay kit (Cat. No. V7002) was utilized to determine IC50 values for α, β, δ and γ isoforms of human Class I PI3 kinases (Millipore). Samples of kinase (20 nM α or δ, 40 nM β or γ isoform) were incubated with compound for 15 minutes at room temperature in reaction buffer (15 mM HEPES pH 7.4, 20 mM NaCl, 1 mM EGTA, 0.02% Tween 20, 10 mM MgCl2, 0.2 mg/mL bovine-γ-globulins) followed by addition of ATP/diC8-PtdInsP mixture to give final concentrations of 3 mM ATP and 500 uM diC8-PtdInsP. Reactions were incubated at room temperature for 2 hours followed by addition of 25 uL of stop solution. After a 40-minute incubation at room temperature, 50 uL of Promega detection mix was added followed by incubation for 1 hour at room temperature. Plates were then read on Envision plate reader in luminescence mode. Data was converted to % inhibition using the following equation below:
(§2) [formula] where S is the sample luminescence, Pos is a positive control without added PI3K, Neg is the negative control without added compound. Data was then plotted as % inhibition vs compound concentration. Data fit to 4 parameter logistic equation to determine IC50 values: […]
(§3) Certain compounds provided herein were tested in PI3-Kinase Promega Assay using procedures as described above to determine IC50 values for α, β, δ and/or γ isoforms.

The next assay has as its target T2, PI3K α (Homo sapiens, UniProt P42336).
T2 construct: purchased Millipore
The conditions noted are these: 20 nM kinase, 3 mM ATP, 500 uM diC8-PtdInsP. The procedure: as §1, §2, §3

Another assay has as its target T3, PI3K δ (Homo sapiens, UniProt O00329).
T3 construct: purchased Millipore
The conditions noted are these: 20 nM kinase, 3 mM ATP, 500 uM diC8-PtdInsP. The protocol: as §1, §2, §3

Another assay addresses T4, PI3K γ (Homo sapiens, UniProt P48736).
T4 construct: purchased Millipore
The conditions noted are these: 40 nM kinase, 3 mM ATP, 500 uM diC8-PtdInsP. The procedure: Promega ADP-Glo Max assay kit (Cat. No. V7002) was utilized to determine IC50 values for α, β, δ and γ isoforms of human Class I PI3 kinases (Millipore). […] Reactions were incubated at room temperature for 2 hours followed by addition of 25 uL of stop solution. After a 40-minute incubation at room temperature, 50 uL of Promega detection mix was added followed by incubation for 1 hour at room temperature. Plates were then read on Envision plate reader in luminescence mode. Data was converted to % inhibition using the following equation below:
[formula] where S is the sample luminescence, Pos is a positive control without added PI3K, Neg is the negative control without added compound. Data was then plotted as % inhibition vs compound concentration.
as §3

Structures are written as SMILES.

T4 sequence (P48736 whole entry): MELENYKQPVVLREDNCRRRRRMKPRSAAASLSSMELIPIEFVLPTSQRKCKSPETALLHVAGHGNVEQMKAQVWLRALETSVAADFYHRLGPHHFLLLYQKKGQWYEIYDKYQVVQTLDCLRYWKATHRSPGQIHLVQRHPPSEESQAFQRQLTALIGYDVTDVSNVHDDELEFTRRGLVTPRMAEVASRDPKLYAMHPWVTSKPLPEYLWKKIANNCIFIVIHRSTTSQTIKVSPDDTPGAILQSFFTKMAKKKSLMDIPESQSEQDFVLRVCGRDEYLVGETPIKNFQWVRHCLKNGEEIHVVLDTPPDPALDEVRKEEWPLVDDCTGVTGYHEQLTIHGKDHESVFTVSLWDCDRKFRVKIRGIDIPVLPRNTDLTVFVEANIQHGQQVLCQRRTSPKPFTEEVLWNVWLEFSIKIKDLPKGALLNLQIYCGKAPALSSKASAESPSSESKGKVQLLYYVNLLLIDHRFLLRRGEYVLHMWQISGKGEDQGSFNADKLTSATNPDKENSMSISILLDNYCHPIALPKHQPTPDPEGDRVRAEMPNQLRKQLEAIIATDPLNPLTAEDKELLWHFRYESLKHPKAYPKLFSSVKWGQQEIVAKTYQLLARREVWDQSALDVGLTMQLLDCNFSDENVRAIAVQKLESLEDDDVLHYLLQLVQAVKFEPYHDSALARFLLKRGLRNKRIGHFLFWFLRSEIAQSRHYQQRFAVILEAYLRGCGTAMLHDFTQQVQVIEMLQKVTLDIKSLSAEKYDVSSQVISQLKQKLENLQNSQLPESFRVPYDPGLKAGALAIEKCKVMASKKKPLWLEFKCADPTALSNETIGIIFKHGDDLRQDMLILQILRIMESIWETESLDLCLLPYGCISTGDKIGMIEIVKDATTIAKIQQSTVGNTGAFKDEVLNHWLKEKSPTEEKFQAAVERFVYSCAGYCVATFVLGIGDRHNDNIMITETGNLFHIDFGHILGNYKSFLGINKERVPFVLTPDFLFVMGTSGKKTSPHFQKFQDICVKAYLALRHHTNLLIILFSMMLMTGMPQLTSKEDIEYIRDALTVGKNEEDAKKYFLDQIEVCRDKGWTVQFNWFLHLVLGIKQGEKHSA
T3 sequence (O00329 whole entry): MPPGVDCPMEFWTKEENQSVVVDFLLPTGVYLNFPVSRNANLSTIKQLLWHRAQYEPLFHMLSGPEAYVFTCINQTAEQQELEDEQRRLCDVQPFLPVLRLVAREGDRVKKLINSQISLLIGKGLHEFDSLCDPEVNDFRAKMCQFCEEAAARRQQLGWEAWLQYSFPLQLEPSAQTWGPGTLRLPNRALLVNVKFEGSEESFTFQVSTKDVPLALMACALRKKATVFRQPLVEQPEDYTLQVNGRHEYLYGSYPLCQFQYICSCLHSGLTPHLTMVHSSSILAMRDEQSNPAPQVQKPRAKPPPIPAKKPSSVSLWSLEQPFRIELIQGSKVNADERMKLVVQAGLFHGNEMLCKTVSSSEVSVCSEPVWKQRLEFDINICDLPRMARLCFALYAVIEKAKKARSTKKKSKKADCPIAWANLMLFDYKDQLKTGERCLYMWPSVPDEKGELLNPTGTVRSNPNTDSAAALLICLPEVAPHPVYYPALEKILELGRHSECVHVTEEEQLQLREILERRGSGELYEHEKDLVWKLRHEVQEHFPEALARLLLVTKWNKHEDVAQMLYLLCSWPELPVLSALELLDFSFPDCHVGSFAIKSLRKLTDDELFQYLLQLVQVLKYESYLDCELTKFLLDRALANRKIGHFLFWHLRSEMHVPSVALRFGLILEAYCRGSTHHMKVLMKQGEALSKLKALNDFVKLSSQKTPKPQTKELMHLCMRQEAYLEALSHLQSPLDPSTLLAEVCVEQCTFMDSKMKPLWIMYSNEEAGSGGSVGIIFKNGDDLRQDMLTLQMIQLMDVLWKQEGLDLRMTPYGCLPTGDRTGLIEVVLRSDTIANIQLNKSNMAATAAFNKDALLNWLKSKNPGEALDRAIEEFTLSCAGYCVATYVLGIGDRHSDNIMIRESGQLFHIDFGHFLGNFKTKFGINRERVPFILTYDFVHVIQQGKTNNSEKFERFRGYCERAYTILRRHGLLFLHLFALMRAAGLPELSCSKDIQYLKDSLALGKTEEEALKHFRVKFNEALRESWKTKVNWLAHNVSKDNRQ
T3 sequence (P27986 whole entry partner): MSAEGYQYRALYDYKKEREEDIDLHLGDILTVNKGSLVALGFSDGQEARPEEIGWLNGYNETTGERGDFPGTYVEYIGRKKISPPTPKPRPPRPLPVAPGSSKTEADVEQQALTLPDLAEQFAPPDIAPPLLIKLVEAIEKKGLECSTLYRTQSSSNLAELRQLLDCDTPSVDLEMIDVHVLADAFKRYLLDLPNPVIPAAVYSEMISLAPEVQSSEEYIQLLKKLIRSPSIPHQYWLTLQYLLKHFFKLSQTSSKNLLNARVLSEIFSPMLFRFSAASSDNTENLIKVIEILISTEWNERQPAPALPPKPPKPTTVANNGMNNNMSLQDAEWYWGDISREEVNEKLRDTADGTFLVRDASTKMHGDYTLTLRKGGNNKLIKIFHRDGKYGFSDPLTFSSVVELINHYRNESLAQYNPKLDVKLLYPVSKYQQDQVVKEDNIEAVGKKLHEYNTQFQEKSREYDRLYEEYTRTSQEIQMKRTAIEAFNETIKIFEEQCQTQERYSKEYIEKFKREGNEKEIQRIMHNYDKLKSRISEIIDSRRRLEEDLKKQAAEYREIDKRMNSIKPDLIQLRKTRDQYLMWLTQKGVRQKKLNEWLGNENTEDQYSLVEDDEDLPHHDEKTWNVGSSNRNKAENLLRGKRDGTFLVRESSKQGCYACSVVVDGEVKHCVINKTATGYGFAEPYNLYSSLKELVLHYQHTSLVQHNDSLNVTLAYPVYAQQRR
T2 sequence (P42336 whole entry): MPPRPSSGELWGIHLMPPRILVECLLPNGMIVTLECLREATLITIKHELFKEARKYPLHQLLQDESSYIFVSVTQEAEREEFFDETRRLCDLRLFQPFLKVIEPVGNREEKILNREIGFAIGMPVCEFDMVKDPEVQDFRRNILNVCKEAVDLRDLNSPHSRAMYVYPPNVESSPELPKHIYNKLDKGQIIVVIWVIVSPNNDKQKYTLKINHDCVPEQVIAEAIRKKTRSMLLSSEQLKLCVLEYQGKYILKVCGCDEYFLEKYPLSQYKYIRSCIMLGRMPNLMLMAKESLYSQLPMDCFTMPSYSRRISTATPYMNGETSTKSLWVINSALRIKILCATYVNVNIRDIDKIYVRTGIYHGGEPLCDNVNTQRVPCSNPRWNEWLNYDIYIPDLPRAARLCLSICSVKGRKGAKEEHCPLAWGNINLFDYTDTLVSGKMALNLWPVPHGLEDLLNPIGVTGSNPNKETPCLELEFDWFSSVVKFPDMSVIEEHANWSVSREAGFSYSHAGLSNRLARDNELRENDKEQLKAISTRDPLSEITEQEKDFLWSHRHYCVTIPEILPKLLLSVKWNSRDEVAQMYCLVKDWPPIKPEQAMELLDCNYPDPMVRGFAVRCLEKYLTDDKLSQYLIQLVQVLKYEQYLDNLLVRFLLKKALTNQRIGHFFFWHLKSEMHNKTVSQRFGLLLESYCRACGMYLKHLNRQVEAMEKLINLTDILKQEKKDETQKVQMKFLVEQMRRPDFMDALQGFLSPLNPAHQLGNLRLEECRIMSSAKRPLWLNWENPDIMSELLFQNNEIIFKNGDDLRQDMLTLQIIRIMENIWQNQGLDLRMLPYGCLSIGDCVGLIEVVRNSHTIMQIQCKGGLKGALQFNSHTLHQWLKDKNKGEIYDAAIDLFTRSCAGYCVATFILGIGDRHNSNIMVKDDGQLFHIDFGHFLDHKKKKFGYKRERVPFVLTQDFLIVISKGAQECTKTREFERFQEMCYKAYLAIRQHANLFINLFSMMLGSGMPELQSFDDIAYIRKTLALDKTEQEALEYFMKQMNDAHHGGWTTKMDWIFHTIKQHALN
T2 sequence (P27986 whole entry partner): as the sequence (P27986 whole entry partner) above
T1 sequence (P42338 whole entry): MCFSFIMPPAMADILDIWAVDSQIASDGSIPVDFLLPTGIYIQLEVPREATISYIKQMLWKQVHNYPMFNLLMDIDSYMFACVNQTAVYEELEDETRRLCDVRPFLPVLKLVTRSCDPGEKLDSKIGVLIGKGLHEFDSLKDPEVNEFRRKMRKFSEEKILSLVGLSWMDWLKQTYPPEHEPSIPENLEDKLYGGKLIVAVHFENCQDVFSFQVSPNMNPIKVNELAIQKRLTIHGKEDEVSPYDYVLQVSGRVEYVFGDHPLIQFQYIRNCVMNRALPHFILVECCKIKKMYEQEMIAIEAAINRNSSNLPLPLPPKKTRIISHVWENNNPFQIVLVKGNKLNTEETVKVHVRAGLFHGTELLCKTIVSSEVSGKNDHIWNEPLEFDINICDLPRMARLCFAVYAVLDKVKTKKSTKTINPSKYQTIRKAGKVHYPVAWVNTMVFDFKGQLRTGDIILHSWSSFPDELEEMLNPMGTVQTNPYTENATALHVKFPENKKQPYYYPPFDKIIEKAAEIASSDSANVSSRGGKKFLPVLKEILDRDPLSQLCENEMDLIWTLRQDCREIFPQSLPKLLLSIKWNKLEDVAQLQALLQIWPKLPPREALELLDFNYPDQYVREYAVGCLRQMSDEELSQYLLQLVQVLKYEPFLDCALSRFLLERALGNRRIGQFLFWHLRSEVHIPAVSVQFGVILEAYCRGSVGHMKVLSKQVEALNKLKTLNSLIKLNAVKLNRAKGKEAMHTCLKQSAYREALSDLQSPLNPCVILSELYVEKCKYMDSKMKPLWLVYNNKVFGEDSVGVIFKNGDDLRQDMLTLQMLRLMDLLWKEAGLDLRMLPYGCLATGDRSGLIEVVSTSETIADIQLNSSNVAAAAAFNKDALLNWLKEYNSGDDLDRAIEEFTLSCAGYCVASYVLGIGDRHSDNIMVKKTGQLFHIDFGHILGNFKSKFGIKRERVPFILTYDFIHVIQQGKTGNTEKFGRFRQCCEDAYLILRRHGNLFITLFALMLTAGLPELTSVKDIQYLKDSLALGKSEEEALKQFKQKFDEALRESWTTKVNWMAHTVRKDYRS
T1 sequence (P27986 whole entry partner): as the sequence (P27986 whole entry partner) above

Take `C[C@H](NC(=O)c1c(N)nn2cccnc12)c1cc2cccc(OC(F)(F)F)c2c(=O)n1-c1ccccc1` [Compound 302]: the IC50 on PI3K β is more than 10 µM; against PI3K α, more than 10 µM; against PI3K δ, 1 to 10 µM; against PI3K γ, 1 to 10 µM.
As for `C[C@H](NC(=O)c1c(N)nn2cccnc12)c1nn2ccc(-c3cnn(C)c3)c2c(=O)n1-c1ccccc1` [Compound 287], the IC50 against PI3K β, on PI3K α, on PI3K δ and against PI3K γ was more than 10 µM each time.
With `C[C@H](NC(=O)c1nc(-c2cccc(S(=O)(=O)N3CCN(C)CC3)c2)cnc1N)c1cc2cccc(Cl)c2c(=O)n1-c1ccccc1` [Compound 100], the IC50 at PI3K β, on PI3K α, against PI3K δ and on PI3K γ was 1 to 10 µM each time.
Take `CC(=O)Nc1ncc(-c2cccc(NS(C)(=O)=O)c2)nc1C(=O)N[C@@H](C)c1cc2cccc(Cl)c2c(=O)n1C` [Compound 185]: the IC50 on PI3K β, on PI3K α, against PI3K δ and on PI3K γ was more than 10 µM each time.
In the case of `C[C@H](NC(=O)c1c(N)nn2cccnc12)c1cc2cccc(/C=N\O)c2c(=O)n1-c1ccccc1` [Compound 226], the half-inhibitory concentration (IC50) on PI3K β is more than 10 µM; against PI3K α it was more than 10 µM; against PI3K δ, 1 to 10 µM; against PI3K γ, 0.1 to 1 µM.
For the molecule `COc1cccc2c(Br)c([C@H](C)NC(=O)c3c(N)nn4cccnc34)n(-c3ccccc3)c(=O)c12` [Compound 256], the IC50 on PI3K β is more than 10 µM; at PI3K α it was more than 10 µM; against PI3K δ it was 1 to 10 µM; on PI3K γ, 0.1 to 1 µM.
`C[C@H](NC(=O)c1c(N)nn2c1NCCC2)c1cc2cccc(Cl)c2c(=O)n1-c1ccccc1` [Compound 307]: the IC50 against PI3K β, against PI3K α, against PI3K δ and on PI3K γ was more than 10 µM each time.
Consider `C[C@H](NC(=O)c1c(N)nn2cccnc12)c1c(Br)c2cccc(F)c2c(=O)n1-c1ccccc1` [Compound 255], for which the half-maximal inhibitory concentration (IC50) lay within 1 to 10 µM against PI3K β, 1 to 10 µM against PI3K α, 1 to 10 µM at PI3K δ and 0.1 to 1 µM on PI3K γ.
Turning to `CC(C)c1ccnc2c(C(=O)N[C@@H](C)c3cc4cccc(Cl)c4c(=O)n3-c3ccccc3)c(N)nn12` [Compound 177], the concentration for half-maximal inhibition (IC50) against PI3K β, at PI3K α, against PI3K δ and at PI3K γ was more than 10 µM in each case.
For the molecule `C[C@H](NC(=O)c1c(N)nn2cccnc12)C1Cc2cccc(F)c2C(=O)N1c1ccccc1` (some centres unmarked) [Compound 304], the IC50 on PI3K β, on PI3K α, at PI3K δ and on PI3K γ was more than 10 µM throughout.
`Cc1cnc(C(=O)N[C@@H](C)c2c(Br)c3cccc(Cl)c3c(=O)n2-c2ccccc2)c(N)n1` [Compound 288]: the IC50 at PI3K β was more than 10 µM; on PI3K α, more than 10 µM; on PI3K δ, 1 to 10 µM; against PI3K γ, 1 to 10 µM.
In the case of `COc1cccc2c(C)c([C@H](C)NC(=O)c3c(N)nn4cccnc34)n(-c3ccccc3)c(=O)c12` [Compound 261], the concentration for half-maximal inhibition (IC50) at PI3K β is more than 10 µM; against PI3K α it was more than 10 µM; against PI3K δ, 1 to 10 µM; on PI3K γ, 0.1 to 1 µM.
For `C[C@H](NC(=O)c1c(N)nn2cccnc12)c1cc2cccc(Cl)c2c(=O)n1CC(=O)N(C)C` [Compound 296], the IC50 at PI3K β was 1 to 10 µM; against PI3K α, more than 10 µM; against PI3K δ, more than 10 µM; against PI3K γ it was more than 10 µM.
As to `CC(=O)N(C)Cc1cccc2cc([C@H](C)NC(=O)c3c(N)nn4cccnc34)n(-c3ccccc3)c(=O)c12` [Compound 232], the half-inhibitory concentration (IC50) at PI3K β is more than 10 µM; against PI3K α, more than 10 µM; against PI3K δ it was less than 0.1 µM; on PI3K γ it was more than 10 µM.
`CNCCn1c([C@H](C)NC(=O)c2c(N)nn3cccnc23)cc2cccc(Cl)c2c1=O` [Compound 241]: the concentration for half-maximal inhibition (IC50) at PI3K β is less than 0.1 µM; on PI3K α it was 1 to 10 µM; at PI3K δ, less than 0.1 µM; at PI3K γ, 1 to 10 µM.
On to `C[C@H](NC(=O)c1nc(-c2cncc(NS(C)(=O)=O)c2)cnc1N)c1cc2cccc(Cl)c2c(=O)n1C1CC1` [Compound 172], for which the IC50 against PI3K β, at PI3K α, on PI3K δ and against PI3K γ was less than 0.1 µM in each case.
For the molecule `COc1cccc(-c2cnc(N)c(C(=O)N[C@@H](C)c3cc4cccc(Cl)c4c(=O)n3-c3ccccc3)n2)c1` [Compound 105], the half-maximal inhibitory concentration (IC50) at PI3K β, against PI3K α, at PI3K δ and against PI3K γ was more than 10 µM each time.
As for `CC(=O)Nc1ncc(-c2cccc3cc([C@H](C)NC(=O)c4c(N)nn5cccnc45)n(-c4ccccc4)c(=O)c23)s1` [Compound 247], the IC50 against PI3K β is more than 10 µM; against PI3K α it was 1 to 10 µM; against PI3K δ, 1 to 10 µM; on PI3K γ, 0.1 to 1 µM.
Consider `Nc1nn2cccnc2c1C(=O)N1CCC[C@H]1c1cc2cccc(Cl)c2c(=O)n1-c1ccccc1` [Compound 147], for which the IC50 is 1 to 10 µM at PI3K β, more than 10 µM against PI3K α, more than 10 µM against PI3K δ and 1 to 10 µM on PI3K γ.
On to `C[C@H](NC(=O)c1c(N)nn2cccnc12)c1cc2cccc(CN(C)C)c2c(=O)n1-c1ccccc1` [Compound 231], for which the IC50 is more than 10 µM on PI3K β, more than 10 µM against PI3K α, less than 0.1 µM on PI3K δ and more than 10 µM at PI3K γ.
As for `C[C@H](NC(=O)c1c(N)nn2cccnc12)c1cc2cccc(N3CCN(C)CC3)c2c(=O)n1-c1ccccc1` [Compound 264], the IC50 on PI3K β, against PI3K α, against PI3K δ and against PI3K γ was more than 10 µM throughout.
On to `CNCc1cccc2cc([C@H](C)NC(=O)c3c(N)nn4cccnc34)n(-c3ccccc3)c(=O)c12` [Compound 230], for which the IC50 is more than 10 µM against PI3K β, more than 10 µM on PI3K α, 1 to 10 µM on PI3K δ and more than 10 µM against PI3K γ.
Consider `C[C@H](NC(=O)c1nc(-c2cccc(NS(C)(=O)=O)c2)cnc1N)c1cc2cccc(N3CCOCC3)c2c(=O)n1-c1ccccc1` [Compound 263], for which the IC50 was more than 10 µM on PI3K β, more than 10 µM on PI3K α, more than 10 µM at PI3K δ and 1 to 10 µM at PI3K γ.
In the case of `C[C@H](NC(=O)c1c(N)nn2cccnc12)c1cc2cccc(CNCC3CCCO3)c2c(=O)n1-c1ccccc1` (some centres unmarked) [Compound 229], the IC50 at PI3K β is more than 10 µM; at PI3K α it was more than 10 µM; on PI3K δ, 1 to 10 µM; at PI3K γ, 1 to 10 µM.
For the molecule `COc1ncc(-c2cccc3cc([C@H](C)NC(=O)c4c(N)nn5cccnc45)n(-c4ccccc4)c(=O)c23)s1` [Compound 246], the IC50 on PI3K β is more than 10 µM; against PI3K α, more than 10 µM; at PI3K δ it was 1 to 10 µM; on PI3K γ it was 0.1 to 1 µM.
In the case of `C[C@H](NC(=O)c1cc(-c2cccc(NS(C)(=O)=O)c2)cnc1N)c1cc2cccc(Cl)c2c(=O)n1-c1ccccc1` [Compound 306], the concentration for half-maximal inhibition (IC50) on PI3K β, against PI3K α, against PI3K δ and at PI3K γ was more than 10 µM in each case.
